According to US9649309B2 (priority 2014, dated 2017):

Columns and labels:
Axl = Axl (Homo sapiens (Human), UniProt P30530); settings: read-out: IC50 Axl
Tyro3 = Tyro3 (Homo sapiens (Human), UniProt Q06418); settings: read-out: IC50 Tyro3
Tyro3, sequence (Q06418 41-890 limits assumed): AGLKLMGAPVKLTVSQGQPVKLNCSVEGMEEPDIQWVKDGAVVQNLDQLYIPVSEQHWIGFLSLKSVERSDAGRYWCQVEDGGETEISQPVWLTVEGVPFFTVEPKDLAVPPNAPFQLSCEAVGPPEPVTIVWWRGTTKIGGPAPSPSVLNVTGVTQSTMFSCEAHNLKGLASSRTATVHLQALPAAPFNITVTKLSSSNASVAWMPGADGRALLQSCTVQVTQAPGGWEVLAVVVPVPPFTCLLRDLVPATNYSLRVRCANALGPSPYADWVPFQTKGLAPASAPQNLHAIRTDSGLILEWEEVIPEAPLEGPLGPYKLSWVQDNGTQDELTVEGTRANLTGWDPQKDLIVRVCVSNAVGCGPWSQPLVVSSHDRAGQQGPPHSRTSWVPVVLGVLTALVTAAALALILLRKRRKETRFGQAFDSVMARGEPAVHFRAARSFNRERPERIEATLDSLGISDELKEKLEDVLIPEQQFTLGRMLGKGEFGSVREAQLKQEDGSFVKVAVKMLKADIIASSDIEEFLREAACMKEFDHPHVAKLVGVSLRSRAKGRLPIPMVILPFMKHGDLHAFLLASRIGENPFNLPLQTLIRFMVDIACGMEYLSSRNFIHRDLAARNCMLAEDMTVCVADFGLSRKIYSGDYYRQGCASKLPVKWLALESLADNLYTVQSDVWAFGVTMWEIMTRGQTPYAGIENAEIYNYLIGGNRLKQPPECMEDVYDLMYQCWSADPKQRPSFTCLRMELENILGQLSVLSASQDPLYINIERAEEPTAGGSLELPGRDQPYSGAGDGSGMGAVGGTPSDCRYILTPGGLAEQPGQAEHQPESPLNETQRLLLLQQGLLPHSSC

Axl, sequence (P30530 26-894 limits assumed): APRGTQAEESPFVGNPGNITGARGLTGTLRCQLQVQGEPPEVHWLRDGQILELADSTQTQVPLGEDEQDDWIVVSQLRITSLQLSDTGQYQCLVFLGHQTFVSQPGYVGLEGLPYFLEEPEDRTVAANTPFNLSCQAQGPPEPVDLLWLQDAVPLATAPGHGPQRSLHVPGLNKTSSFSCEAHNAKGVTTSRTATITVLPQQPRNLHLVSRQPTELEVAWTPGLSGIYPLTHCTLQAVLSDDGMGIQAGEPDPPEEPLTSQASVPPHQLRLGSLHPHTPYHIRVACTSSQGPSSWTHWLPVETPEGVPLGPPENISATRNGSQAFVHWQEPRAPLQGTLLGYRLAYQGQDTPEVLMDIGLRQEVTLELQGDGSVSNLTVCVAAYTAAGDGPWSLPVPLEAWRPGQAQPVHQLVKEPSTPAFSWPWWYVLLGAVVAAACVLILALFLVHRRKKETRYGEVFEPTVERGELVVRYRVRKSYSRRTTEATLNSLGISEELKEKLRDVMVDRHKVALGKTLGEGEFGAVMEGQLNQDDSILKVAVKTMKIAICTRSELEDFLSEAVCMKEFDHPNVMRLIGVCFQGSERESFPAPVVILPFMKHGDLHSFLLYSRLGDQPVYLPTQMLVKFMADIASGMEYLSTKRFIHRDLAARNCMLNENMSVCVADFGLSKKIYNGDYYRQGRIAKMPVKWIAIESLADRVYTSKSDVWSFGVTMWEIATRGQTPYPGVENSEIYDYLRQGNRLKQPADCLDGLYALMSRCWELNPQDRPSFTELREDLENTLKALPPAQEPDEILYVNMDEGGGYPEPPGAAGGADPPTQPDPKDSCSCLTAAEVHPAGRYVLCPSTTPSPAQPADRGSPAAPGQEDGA

Row | Structure (SMILES) | IC50 (Axl) [nM] | IC50 (Tyro3) [nM]
1 | CCCCNc1ncc(-c2cc(Nc3ccc(OC)cc3)ncn2)c(N[C@H]2CC[C@H](O)CC2)n1 [UNC4269A] | 513 | 234
2 | CCCCNc1ncc(-c2cc(Nc3cccc(OC)c3)ncn2)c(N[C@H]2CC[C@H](O)CC2)n1 [UNC4270A] | 158 | 121
3 | CCCCNc1ncc(-c2cc(Nc3ccccc3OC)ncn2)c(N[C@H]2CC[C@H](O)CC2)n1 [UNC4272A] | 12300 | 194
4 | CCCCNc1ncc(-c2ccc(CCN3CCCN(C)CC3)cn2)c(N[C@H]2CC[C@H](O)CC2)n1 [UNC4279A] | 67 | 42
5 | CCCCNc1ncc(C(=O)NCc2ccc3ccccc3n2)c(N[C@H]2CC[C@H](O)CC2)n1 [UNC4286A] | 572 | 253
6 | CCCCNc1ncc(C(=O)NCC2CCNCC2)c(N[C@H]2CC[C@H](O)CC2)n1 [UNC4287A] | 960 | 494
7 | CCCCNc1ncc(C(=O)NCC2CCN(C(C)=O)CC2)c(N[C@H]2CC[C@H](O)CC2)n1 [UNC4288A] | 1050 | 262
8 | CCCCNc1ncc(C(=O)NCC2CCN(C(C)C)CC2)c(N[C@H]2CC[C@H](O)CC2)n1 [UNC4289A] | 420 | 178
9 | CCCCNc1ncc(C(=O)NCC2CCN(C3CCCCC3)CC2)c(N[C@H]2CC[C@H](O)CC2)n1 [UNC4302A] | 292 | 153
10 | C=CCN1CCC(CNC(=O)c2cnc(NCCCC)nc2N[C@H]2CC[C@H](O)CC2)CC1 [UNC4303A] | 777 | 486
11 | CCCCNc1ncc(C(=O)NCC2CCN(c3ccccc3)CC2)c(N[C@H]2CC[C@H](O)CC2)n1 [UNC4304A] | 664 | 333
12 | CCCCNc1ncc(C(=O)NCc2cncnc2)c(N[C@H]2CC[C@H](O)CC2)n1 [UNC4307A] | 471 | 217
13 | CCCCNc1ncc(-c2cc(Nc3cccc([N+](=O)[O-])c3)ncn2)c(N[C@H]2CC[C@H](O)CC2)n1 [UNC4322A] | 30000 | 889
14 | CCCCNc1ncc(-c2cc(Nc3cccc(C(C)C)c3)ncn2)c(N[C@H]2CC[C@H](O)CC2)n1 [UNC4323A] | 30000 | 619
15 | CCCCNc1ncc(-c2cc(Nc3cccc(C(C)(C)C)c3)ncn2)c(N[C@H]2CC[C@H](O)CC2)n1 [UNC4333A] | 30000 | 867
16 | CCCCNc1ncc(-c2ccc(CC3CCNCC3)cn2)c(N[C@H]2CC[C@H](O)CC2)n1 [UNC4335A, trans-4-((2-(butylamino)-5-(5-(piperidin-4-ylmethyl)pyridin-2-yl)pyrimidin-4-yl)amino)cyclohexan-1-ol] | 137 | 56
17 | CCCCNc1ncc(-c2ccc(C=C3CCNCC3)cn2)c(N[C@H]2CC[C@H](O)CC2)n1 [UNC4336A] | 40 | 13
18 | CCCCNc1ncc(-c2ccc(C=C3CCN(C)CC3)cn2)c(N[C@H]2CC[C@H](O)CC2)n1 [UNC4338A] | 42 | 20
19 | CCCCNc1ncc(-c2ccc(CC3CCN(C(C)C)CC3)cn2)c(N[C@H]2CC[C@H](O)CC2)n1 [UNC4339A, trans-4-((2-(butylamino)-5-(5-((1-isopropylpiperidin-4-yl)methyl)pyridin-2-yl)pyrimidin-4-yl)amino)cyclohexan-1-ol] | 39 | 22
20 | CCCCNc1ncc(C(=O)NCc2cncs2)c(N[C@H]2CC[C@H](O)CC2)n1 [UNC4344A] | 196 | 276
21 | CCCCNc1ncc(-c2cc(Nc3cccc(-c4ccccc4)c3)ncn2)c(N[C@H]2CC[C@H](O)CC2)n1 [UNC4353A] | 30000 | 15100
22 | CCCCNc1ncc(-c2ccc(C3=CCNCC3)cn2)c(N[C@H]2CC[C@H](O)CC2)n1 [UNC4354A] | 27 | 24
23 | CCCCNc1ncc(-c2ccc(C3=CCN(C(C)C)CC3)cn2)c(N[C@H]2CC[C@H](O)CC2)n1 [UNC4358A] | 24 | 42
